From ChEMBL document CHEMBL1201862, “PubChem BioAssay data set” (2004) come the findings set out here.

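Growth conditions: 96-well plates. Treatment: test compound, 48 hours, 5 concentrations. Analysis: linear interpolation between bracketing concentrations; unreached endpoints set to highest concentration. Abbreviation: GI50, concentration required for 50% inhibition of growth.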 The source made the active and inactive calls. Rule as the data show it: active = GI50 up to about 1.1 µM and inactive = higher.

Among the test systems are NCI/ADR-RES; HCT-116; ACHN; KM12; MCF7; MDA-MB-231; IGROV-1; Hs-578T; TK-10; EKVX; PC-3; CAKI-1; UO-31; HCT-15; 786-0; MDA-N; U-251; SF-539; M14; Malme-3M.
Holding throughout (assay): NCI-60 cell line screen, 48 h

In the case of `CCOP(=O)(CN1CCNCCN(CP(=O)(OCC)OCC)CC1)OCC`, the GI50 in the experiment with NCI/ADR-RES, with HCT-116, in the experiment with ACHN, in the experiment on KM12, in the experiment on MCF7 and with MDA-MB-231 was > 100 µM (inactive) each time. In addition, the GI50 in the experiment on IGROV-1, in the experiment on Hs-578T, in the experiment with TK-10, with EKVX, in the experiment with PC-3 and with CAKI-1 was > 100 µM (inactive) throughout. For the same compound, the GI50 with UO-31 is > 100 µM (inactive); in the experiment with HCT-15 it was more than 100 µM; in the experiment on 786-0 it was > 100 µM (inactive); with MDA-N, > 100 µM (inactive); with U-251, > 100 µM (inactive); in the experiment on SF-539 it was > 100 µM (inactive). Further, the GI50 in the experiment with M14 is > 100 µM (inactive).

As to `O=c1c2cc3c(=O)n4c(cc(-c5ccccc5)c5cc(Cl)ccc54)nc3cc2nc2cc(-c3ccccc3)c3cc(Cl)ccc3n12`, the GI50 in the experiment on NCI/ADR-RES was > 100 µM (inactive); in the experiment on HCT-116, > 100 µM (inactive); in the experiment on ACHN, 76.6 µM (inactive); with KM12 it was > 100 µM (inactive); with MCF7 it was > 100 µM (inactive); in the experiment on MDA-MB-231, 39.4 µM (inactive). The GI50 was > 100 µM (inactive) in the experiment with IGROV-1; 43.4 µM (inactive) in the experiment with Hs-578T; > 100 µM (inactive) in the experiment on TK-10; 75.3 µM (inactive) in the experiment with EKVX; > 100 µM (inactive) with PC-3; > 100 µM (inactive) with CAKI-1. Also, the GI50 is 37.8 µM (inactive) in the experiment on UO-31; more than 100 µM in the experiment with HCT-15; 64.1 µM (inactive) in the experiment on 786-0; > 100 µM (inactive) with MDA-N; 52.4 µM (inactive) in the experiment on U-251; > 100 µM (inactive) in the experiment on SF-539. For the same compound, in the experiment with M14, the GI50 is > 100 µM (inactive).

Take `N#Cc1c(N)c(C#N)c2c(c1-c1ccc(Cl)cc1)COc1ccccc1-2`: the GI50 in the experiment with Malme-3M is 22 µM (inactive); in the experiment with NCI/ADR-RES it was 20.9 µM (inactive); with HCT-116 it was 12.2 µM (inactive); in the experiment on ACHN it was 13.7 µM (inactive); with KM12 it was 28.6 µM (inactive); in the experiment with MCF7 it was 29 µM (inactive). The GI50 was 24.2 µM (inactive) with MDA-MB-231; 20.4 µM (inactive) in the experiment on IGROV-1; 14.6 µM (inactive) in the experiment on TK-10; 9.14 µM (inactive) in the experiment on EKVX; 16.8 µM (inactive) in the experiment on PC-3; 4.04 µM (inactive) with UO-31. Besides, the GI50 is 31.8 µM in the experiment with HCT-15; 3.02 µM (inactive) in the experiment with 786-0; 18.5 µM (inactive) in the experiment on MDA-N; 14.7 µM (inactive) in the experiment with U-251; 18.5 µM (inactive) in the experiment on SF-539; 38.6 µM (inactive) in the experiment on M14.

Turning to `CC(=O)C(=NNc1ccc(-n2c(C)nc3ccc(Br)cc3c2=O)cc1)C(C)=O`, the GI50 is 54.1 µM (inactive) with NCI/ADR-RES; 88.3 µM (inactive) in the experiment with HCT-116; 98.4 µM (inactive) in the experiment with ACHN; > 100 µM (inactive) with KM12; > 100 µM (inactive) with MCF7; 37.2 µM (inactive) in the experiment on MDA-MB-231. Further, the GI50 in the experiment on IGROV-1 was > 100 µM (inactive); with Hs-578T it was 26.7 µM (inactive); with TK-10 it was 56.9 µM (inactive); in the experiment on EKVX, > 100 µM (inactive); in the experiment with PC-3, 73.8 µM (inactive); in the experiment with CAKI-1, > 100 µM (inactive). For the same compound, the GI50 was > 100 µM (inactive) with UO-31; more than 100 µM with HCT-15; 33.7 µM (inactive) with 786-0; > 100 µM (inactive) in the experiment on MDA-N; 58.2 µM (inactive) with U-251; 47.3 µM (inactive) in the experiment with SF-539. For the same compound, the GI50 in the experiment with M14 is > 100 µM (inactive).

In the case of `COc1cccc(CCn2c(N)c(C(=O)O)c3ccc([N+](=O)[O-])cc3c2=O)c1`, the GI50 is 37.3 µM (inactive) in the experiment with Malme-3M; 28.9 µM (inactive) in the experiment with NCI/ADR-RES; 25.1 µM (inactive) in the experiment with HCT-116; 33.7 µM (inactive) with ACHN; 20.1 µM (inactive) in the experiment on MCF7; 16.9 µM (inactive) in the experiment with MDA-MB-231. Further, the GI50 was 36.7 µM (inactive) with IGROV-1; 33.2 µM (inactive) in the experiment on Hs-578T; 51.5 µM (inactive) in the experiment on EKVX; 29.2 µM (inactive) in the experiment on PC-3; 43.5 µM (inactive) in the experiment with CAKI-1; 31.2 µM (inactive) in the experiment with UO-31. Besides, the GI50 with HCT-15 was 31.8 µM; with 786-0, 31.1 µM (inactive); with MDA-N, 30.3 µM (inactive); with U-251 it was 25.9 µM (inactive); in the experiment on M14 it was 45.3 µM (inactive).

In the case of `Cc1cc2[nH]c3[nH]c(=O)[nH]c(=O)c3c2cc1C`, the GI50 in the experiment on Malme-3M, in the experiment with NCI/ADR-RES, with HCT-116, in the experiment with ACHN, with KM12 and in the experiment on MCF7 was > 100 µM (inactive) throughout. The GI50 with MDA-MB-231 was 24.4 µM (inactive); in the experiment with IGROV-1, > 100 µM (inactive); with Hs-578T, 69 µM (inactive); in the experiment on TK-10 it was > 100 µM (inactive); in the experiment with EKVX it was 20.3 µM (inactive); in the experiment on CAKI-1, > 100 µM (inactive). In addition, the GI50 was > 100 µM (inactive) in the experiment on UO-31; more than 100 µM with HCT-15; > 100 µM (inactive) in the experiment on 786-0; > 100 µM (inactive) in the experiment with MDA-N; > 100 µM (inactive) with SF-539; > 100 µM (inactive) in the experiment on M14.

`CC(=O)OCC1OC(n2c(C)c(C(C)=O)c(-c3ccco3)c(C#N)c2=S)C(OC(C)=O)C(OC(C)=O)C1OC(C)=O` (stereo unspecified): the GI50 in the experiment on Malme-3M, with NCI/ADR-RES, with HCT-116, with ACHN, with KM12 and with MCF7 was > 100 µM (inactive) each time. For the same compound, the GI50 in the experiment with MDA-MB-231 is > 100 µM (inactive); with TK-10, > 100 µM (inactive); in the experiment on EKVX, > 100 µM (inactive); in the experiment on PC-3, > 100 µM (inactive); in the experiment on UO-31, < 0.01 µM (active); with HCT-15 it was more than 100 µM. The GI50 in the experiment on 786-0, in the experiment with MDA-N, with U-251, with SF-539 and in the experiment on M14 was > 100 µM (inactive) each time.

With `C=C1C(C2(C)C(OC(C)=O)CC(=O)OC(C)(COC(C)=O)C2CC(=O)OC)C(OC=O)C(OC(=O)C(O)C(C)CC)C2(C)C(c3ccoc3)CC(=O)C12O` (stereo unspecified), the GI50 with NCI/ADR-RES was 45.9 µM (inactive); in the experiment on HCT-116, 1.58 µM (inactive); in the experiment with ACHN, 4.2 µM (inactive); in the experiment with KM12 it was 3.23 µM (inactive); in the experiment with MCF7 it was > 25.5 µM (inactive); in the experiment on MDA-MB-231 it was 4.69 µM (inactive). Besides, the GI50 with IGROV-1 was 2.52 µM (inactive); in the experiment on Hs-578T, 8.05 µM (inactive); in the experiment with TK-10 it was 17.4 µM (inactive); in the experiment on EKVX, 6.32 µM (inactive); with PC-3, 5.52 µM (inactive); in the experiment with CAKI-1, 3.27 µM (inactive). The GI50 in the experiment on UO-31 is 3.77 µM (inactive); with HCT-15, 4.8 µM; with 786-0, 5.98 µM (inactive); with MDA-N it was 7.26 µM (inactive); in the experiment with U-251, 3.86 µM (inactive); in the experiment with SF-539 it was 4.42 µM (inactive). Further, the GI50 in the experiment on M14 is > 23.8 µM (inactive).

With `S=C(Nc1ccc(Cl)cc1)c1ccc(CN2CCCCC2)s1`, the GI50 in the experiment with NCI/ADR-RES is 16.8 µM (inactive); in the experiment on HCT-116, 1.8 µM (inactive); in the experiment on ACHN, 4.93 µM (inactive); in the experiment on KM12 it was 5.43 µM (inactive); in the experiment with MCF7, 13.9 µM (inactive); in the experiment on IGROV-1, 2.86 µM (inactive). Moreover, the GI50 with Hs-578T was 37.9 µM (inactive); in the experiment with EKVX, 12.3 µM (inactive); with PC-3, 18.5 µM (inactive); in the experiment with CAKI-1, 12.2 µM (inactive); in the experiment on UO-31 it was 7.8 µM (inactive); in the experiment on HCT-15, 4.72 µM. For the same compound, the GI50 in the experiment on 786-0 was 4.25 µM (inactive); with MDA-N, 2.94 µM (inactive); in the experiment on U-251, 10.1 µM (inactive); in the experiment on SF-539 it was 24.9 µM (inactive); with M14, 4.09 µM (inactive).

For `COC1(C)Cc2c(c(C)c(O)c3c2C(=O)C=C(Cl)C3=O)O1` (stereo unspecified), the GI50 in the experiment on Malme-3M was 13.5 µM (inactive); in the experiment on HCT-116, 44.5 µM (inactive); in the experiment on ACHN, 25.4 µM (inactive); in the experiment on KM12 it was > 100 µM (inactive); with MCF7 it was 41.8 µM (inactive); in the experiment on MDA-MB-231, 16.1 µM (inactive). For the same compound, the GI50 in the experiment on IGROV-1 is 55.5 µM (inactive); in the experiment on Hs-578T, 23.5 µM (inactive); with TK-10, 22.7 µM (inactive); in the experiment with EKVX, > 100 µM (inactive); with PC-3, > 100 µM (inactive); in the experiment on CAKI-1, 20.4 µM (inactive). Moreover, the GI50 is > 87.3 µM (inactive) with UO-31; 45.8 µM in the experiment with HCT-15; > 100 µM (inactive) in the experiment on 786-0; 34.9 µM (inactive) in the experiment on MDA-N; > 75.5 µM (inactive) in the experiment on U-251; > 100 µM (inactive) in the experiment with SF-539. In addition, in the experiment with M14, the GI50 is 21.8 µM (inactive).

As to `CC(C)(C)c1ccc(-c2nc3ccccc3c(=O)o2)cc1`, the GI50 in the experiment on Malme-3M was 35.8 µM (inactive); with NCI/ADR-RES it was 55.2 µM (inactive); in the experiment with HCT-116, 38.7 µM (inactive); with ACHN it was 33.7 µM (inactive); with KM12 it was 29.1 µM (inactive); with MCF7, 27.7 µM (inactive). Besides, the GI50 in the experiment on IGROV-1 is 37.3 µM (inactive); with Hs-578T it was 68.7 µM (inactive); in the experiment with TK-10 it was 70.1 µM (inactive); in the experiment with EKVX, 30.7 µM (inactive); with PC-3, 38.4 µM (inactive); with CAKI-1, 86.3 µM (inactive). The GI50 with UO-31 is 43.1 µM (inactive); with HCT-15, 37.5 µM; with 786-0, 74.6 µM (inactive); in the experiment with MDA-N, 41.2 µM (inactive); in the experiment on U-251, 40.6 µM (inactive); with SF-539, 40.6 µM (inactive). Further, the GI50 with M14 is 42.3 µM (inactive).
